Assay results: PMC10482350, “Nucleoside diphosphate kinases 1 and 2 regulate a protective liver response to a high-fat diet” (Science Advances, 2023)
Values belong to the molecule of their own block, whether it stands above or below them.

Legend:
NME1 [1] = molecular target: T1, NME1 (Mus musculus, UniProt P15532); experiment: histidine phosphorylation (native gel, native MS); release of NME1 from CoA beads; assay type: biochemical; design: full-length recombinant
NME2 = molecular target: T2, NME2 (Mus musculus, UniProt Q01768); experiment: CoA-agarose pull-down of GST-NME2 from bacterial extract; assay type: cell-based
T2 construct: full-length, GST-tagged
T2 sequence (Q01768 whole entry): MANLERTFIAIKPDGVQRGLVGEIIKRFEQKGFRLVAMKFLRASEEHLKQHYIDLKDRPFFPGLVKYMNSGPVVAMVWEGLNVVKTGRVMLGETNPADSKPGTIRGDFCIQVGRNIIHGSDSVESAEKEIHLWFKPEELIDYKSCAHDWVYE

NME1 [2] = molecular target: T1, NME1; experiment: ITC; crystal structure ([…] Å), native MS, nanoDSF; assay type: binding; design: full-length, His-tag cleaved by TEV
NME1 [3] = molecular target: T1, NME1; experiment: dephosphorylation of phosphohistidine NME1 (immunoblot); assay type: biochemical; design: full-length recombinant
[4] = molecular target: the molecule itself; experiment: native MS; recombinant purified NME1 without ligand or incubated with CoA, AcCoA, SucCoA, dephospho-CoA or ATP; charge states +22 and +21 of the hexamer; methods in the Supplementary Materials

Molecule: Nc1ncnc2c1ncn2[C@@H]1O[C@H](COP(=O)(O)OP(=O)(O)OP(=O)(O)O)[C@@H](O)[C@H]1O [ATP]
histidine phosphorylation (native gel, native MS); release of NME1 from CoA bead (NME1 [1]): recombinant murine NME1 purified from bacteria could be phosphorylated by ATP and subsequently dephosphorylated by ADP or guanosine diphosphate (GDP)

Kd (NME1 [2]): ~18 µM
Molecule: CC(C)(COP(=O)(O)OP(=O)(O)OC[C@H]1O[C@@H](n2cnc3c(N)ncnc32)[C@H](O)[C@@H]1OP(=O)(O)O)[C@@H](O)C(=O)NCCC(=O)NCCS [CoA]
CoA-agarose pull-down of GST-NME2 from bacterial extract (NME2): NME2 exhibits an ATP-sensitive CoA binding activity comparable to that of NME1 (fig. S11A)

Molecule: Nc1nc2c(ncn2[C@@H]2O[C@H](CO[P@](=O)(O)OP(=O)(O)O)[C@@H](O)[C@H]2O)c(=O)[nH]1 [GDP]
dephosphorylation of phosphohistidine NME1 (immunoblot) (NME1 [3]): phosphorylated by ATP and subsequently dephosphorylated by ADP or guanosine diphosphate (GDP)

B1: nucleoside diphosphate kinase 1 (NME1), recombinant murine (enzyme, mouse, UniProt P15532 1-152, looked up)
chain: MANSERTFIAIKPDGVQRGLVGEIIKRFEQKGFRLVGLKFLQASEDLLKEHYTDLKDRPFFTGLVKYMHSGPVVAMVWEGLNVVKTGRVMLGETNPADSKPGTIRGDFCIQVGRNIIHGSDSVKSAEKEISLWFQPEELVEYKSCAQNWIYE
notes: also called NDPK 1; WT NME1; source: E. coli BL21-Gold(D3), purified (HisTrap, TEV cleavage, Superdex 200 SEC); not shown: His6, N-terminal, cleaved
stoichiometry N [4]: 6
